# Data from patent EP0109340A2, “Acid salts of 2-piperazinopyrimidine, process for their preparation and pharmaceutical compositions containing them” (priority 1982, dated 1984).
# Columns and labels:
# [1] = system: toxicité de groupe due à l'amphétamine; test: antagonism of amphetamine group toxicity (predictive of antipsychotic action); assay type: in vivo, souris Charles Fiver CD1; details: Mus musculus, ip; median effective dose against mortality due to amphetamine 30 mg/kg i.p.; compound i.p. 30 min before; mortality over 24 h; confidence limits 10,1 - 26,7; read-out: DE50 (limites de confiance)
# Description: L'activité antipsychotique d'un composé représentatif, le monomaléate de 2-(1-pipérazinyl)pyrimidine, a été déterminée dans le test de l'antagonisme de la toxicité de groupe due à l'amphétamine (J.H. Burn et al., Arch. Int. Pharmacodyn. Ther. 1958, 113, 290).
# Le monomaléate de 2-(1-pipérazinyl)pyrimidine a Été administré à des doses croissantes par voie intrapéritonéale à des lots de 10 souris Charles Fiver CD1 pesant 20-22 g et groupées dans des cages de 22 cm de long, 12 cm de large et 12 cm de haute. Trente minutes après l'administration, on a injecté par voie intrapéritonéale de l'amphétamine à la dose de 30 mg/kg. La mortalité des animaux a été évaluée durant les 24 h qui ont suivi l'injection d'amphétamine et comparée, dans chaque groupe, à celle du groupe d'animaux témoins n'ayant reçu que le véhicule (sérum ghysiologigue).
# Le tableau ci-dessous montre la dose efficace médiane (DE5G) d'antagonisme de la mortalité due à l'amphétamine.
# [2] = system: catalepsie provoquée par la prochlorpérazine; test: antagonism of the onset of prochlorperazine-induced catalepsy (cork test, predictive of antidepressant activity); assay type: in vivo, rats mâles Wistar; details: 1 h before prochlorperazine 10 mg/kg s.c., read 5 h later
# Description: L'activité antidépressive des composés de l'invention a été évaluée dans le test de l'antagonisme vis-à-vis de l'installation de la catalepsie provoquée par la prochlorpérazine (K. Eizière et al., Arzneimittel Forschung, 1982, 32 (II), 824).
# Un composé représentatif de l'invention, à savoir le monomaléate de 2-(1-pipérazinyl)pyrimidine, a été administré par voie intrapéritonéale à des groupes de 10 rats mâles Wistar pesant 220-240 g; des animaux de contrôle ont été en même temps traités par du sérum physiologique. Une heure après, les animaux ont reçu, par voie sous-cutanée, de la prochlcrpérazine à une dose de 10 mg/kg. Cinq heures après cette administration, le nombre d'animaux cataleptiques a été estimé par le test du bouchon. Ce test consiste à positionner les animaux de telle sorte qu'ils puissent maintenir pendant au moins 20 seconds leurs pattes en appui sur une colonne formée de trois bouchons de liège superposés (hauteur totale 11 cm). Les performances réalisées pour chaque groupe d'animaux ont été comparées à celles du groupe d'animaux témoins n'ayant reçu que le véhicule et la prcchlorpérazine.
# Le tableau ci-dessous montre le pourcentage d'antagonisme de l'installation de la catalepsie provoquée par la prochlorpérazine.
# [3] = system: comportement de rotation chez la souris après lésion unilatérale du striatum; test: rotation behaviour after unilateral 6-hydroxydopamine lesion of the striatum (dopaminergic mechanism); assay type: in vivo, souris femelles Charles River CD1; details: oral, dose corresponding to 0,15 mg/kg free base; for activité dans le temps (rotations): course over 1, 3 and 6 h; for activité dans le temps (rotations) / somme algébrique des rotations ipsilatérales et contralatérales à la lésion: result in words; for somme algébrique des rotations ipsilatérales et contralatérales à la lésion: versus controls
# Description: Le mécanisme dopaminergique d'un composé représentatif de l'invention, la 2-(1-pipérazinyl)pyrimidine mcno-L (+) - tartrate, a été étudié en comparaison avec la base libre correspondante et son chlorhydrate par l'analyse du comportement de rotation chez la souris après lésion unilatérale du striatum (P. Protais et al. J. Pharmacol. 1976, 7, 251).
# Des souris femelles Charles River CD1 pesant de 20 à 24 g ont préalablement fait l'objet d'une lésion unilatérale du striatum par injection stéréotaxique de 6-hydroxydopamine à raison de 8 mcg par animal. Une semaine après cette opération, la 2-(1-pipérazinyl)pyrimidine mono-L(+)-tartrate, la 2-(l-pipérazinyl)pyrimidine chlorhydrate et la base libre ont été administrées par voie orale à des groupes de 6 souris à une dose correspondant à 0,15 mg/kg de base libre. Le nombre de rotations à été évalué, pendant 2 minutes, 1, 3 et 6 heures après l'administration des trois produits. Les rotations ipsilatérales à la lésion ont été comptées positivement, celles contralatérales ont été comptées négativement. La somme algébrique des rotations pour chaque groupe d'animaux traités a été comparée à celle du groupe d'animaux témoins n'ayant reçu que le véhicule (sérum physiologique).
# Le Tableau IV ci-dessous montre la variation pour cent, par rapport aux animaux témoins, des rotations.
# [4] = free base, tested within a series of compounds; literature; cited from earlier work
SMILES,ED50 [1],"% d'antagonisme ([2]; dose 0,1 mg/kg i.p.)",% d'antagonisme ([2]; dose 1 mg/kg i.p.),variation négative (variation pour cent des rotations par rapport aux animaux témoins) ([3]; 6th hour),activité dans le temps (rotations) [3],somme algébrique des rotations ipsilatérales et contralatérales à la lésion [3],activité analgésique ou antifilariale [4]
"c1cnc(N2CCNCC2)nc1 [2-(1-pipérazinyl)pyrimidine monomaléate, monomaléatede 2-(l-pipérazinyl)pyrimidine]",16.5 mg/kg,20%,80%,,,,
c1cnc(N2CCNCC2)nc1 [2-(1-pipérazinyl)pyrimidine monc-L(+)-tartrate] [mono-L(+)-tartratede 2-(1-pipérazinyl)pyrimidine],,,,> 100%,son activité augmente significativement dans le temps,,
"c1cnc(N2CCNCC2)nc1 [base libre, 2-(1-pipérazinyl)pyrimidine]",,,,,tendence à la diminution de l'activité dans le temps,réduit d'une façon significative,aucun n'a montré d'activité analgésique ou antifilariale
"c1cnc(N2CCNCC2)nc1 [chlorhydrate, 2-(l-pipérazinyl)pyrimidine chlorhydrate]",,,,,inactif aussi dans le temps,n'a pas d'effet significatif,
